Reference: patent US12295396B2, “Antagonists of T2R54 and compositions and uses thereof” (Firmenich Incorporated, priority 2018, dated 2025)
Like-named read-outs stand apart in the source and are kept apart here.

Molecular target: T1, hT2R54 (Homo sapiens, UniProt P59534)
T1 construct: expressed in transfected cells; it overexpresses a promiscuous G protein
T1 sequence (P59534 1-338): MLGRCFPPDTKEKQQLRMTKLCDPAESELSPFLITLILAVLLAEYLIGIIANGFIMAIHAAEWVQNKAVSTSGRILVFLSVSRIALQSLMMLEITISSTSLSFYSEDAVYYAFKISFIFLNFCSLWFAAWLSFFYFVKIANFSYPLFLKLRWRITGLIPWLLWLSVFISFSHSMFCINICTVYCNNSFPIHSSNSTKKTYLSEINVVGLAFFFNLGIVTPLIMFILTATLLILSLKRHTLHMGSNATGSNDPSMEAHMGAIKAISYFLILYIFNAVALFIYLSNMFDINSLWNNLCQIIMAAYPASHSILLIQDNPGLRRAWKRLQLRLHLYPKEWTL
Experiment: Cell-based assay for measuring hT2R54 inhibition (FLIPR calcium, Fluo4AM, acetaminophen as bitter agonist)
Conditions: cells stably expressing hT2R54 and a promiscuous G protein, read-out: hT2R54 IC50
Method: Cells stably expressing hT2R54 and a promiscuous G protein were seeded in 384 well plates 24 hours prior to the experiment. Cells were loaded with the calcium indicator Fluo4AM, washed and loaded in a FLIPR instrument with a compound plate containing increasing doses of acetaminophen in quadruplicates and prepared at 2× of final concentration. Baseline was recorded for 10 seconds, then 25 μl of […] was added onto 25 μl of cells and resulting changes in fluorescence were monitored over an additional 3 minutes. The host cell line overexpressing the G protein but not hT2R54 was treated as described above.
The ability of a test compound that blocks bitter taste elicited through hT2R54 was measured in this assay, as follows. Cells stably expressing hT2R54 and a promiscuous G protein were seeded in 384 well plates 24 hours prior to the experiment. Cells were loaded with the calcium indicator Fluo4AM, washed and loaded in a FLIPR instrument with a compound plate containing increasing doses of acetaminophen in buffer and increasing doses of acetaminophen with depicted fixed concentrations of Cmpd 109 (Table 4). Base line was recorded for 10 seconds, then 25 μl of compound and compound mixtures were added onto 25 μl of cells and resulting changes in fluorescence were monitored over an additional 3 minutes. The concentration of test compound that blocks half of the response when the bitter compound alone is present is presented as the EC50 or IC50 value.
In the examples above, the EC50 of compounds for blocking bitter taste elicited through T2R54 was measured in the same manner.

Row | SMILES | IC50 (Table 4) | other results
1 | COc1cc2c(cc1NC(=O)CN1CCN(C(=O)Cc3ccccc3O)CC1)OCO2 [compound 100] |  | IC50 (Table 2): 430 nM
2 | CC(=O)c1cc2c(cc1NC(=O)CN1CCN(Cc3ccccc3)CC1)OCO2 [compound 101, N-(6-acetylbenzo[d][1,3]dioxol-5-yl)-2-(4-benzylpiperazin-1-yl)acetamide] |  | IC50 (Table 3): 1060 nM
3 | CC(=O)c1cc2c(cc1NC(=O)CN1CCN(Cc3ccccc3F)CC1)OCO2 [compound 102] |  | IC50 (Table 3): 500 nM
4 | CC(=O)c1cc2c(cc1NC(=O)CN1CCN(Cc3cccc(F)c3)CC1)OCO2 [compound 103] |  | IC50 (Table 3): 500 nM
5 | CC(=O)c1cc2c(cc1NC(=O)CN1CCN(Cc3ccc(F)cc3)CC1)OCO2 [compound 104] |  | IC50 (Table 3): 600 nM
6 | COc1ccc(F)cc1CN1CCN(CC(=O)Nc2cc3c(cc2C(C)=O)OCO3)CC1 [compound 105] |  | IC50 (Table 3): 90 nM
7 | CC(=O)c1cc2c(cc1NC(=O)CN1CCN(Cc3ccccn3)CC1)OCO2 [compound 106] |  | IC50 (Table 3): 300 nM
8 | CC(=O)c1cc2c(cc1NC(=O)CN1CCN(Cc3nc4ccccc4s3)CC1)OCO2 [compound 107] |  | IC50 (Table 3): 4180 nM
9 | CC(=O)c1cc2c(cc1NC(=O)CN1CCN(C(C(N)=O)c3ccccc3)CC1)OCO2 (centres unmarked) [compound 108] |  | IC50 (Table 3): 1760 nM
10 | CC(=O)c1cc2c(cc1NC(=O)CN1CCOCC1)OCO2 [compound 109, N-(6-acetylbenzo[d][1,3]dioxol-5-yl)-2-morpholinoacetamide] | 588 nM | 
11 | CC(=O)c1cc2c(cc1NC(=O)C(C)N1CCOCC1)OCO2 (centres unmarked) [compound 110, N-(6-Acetylbenzo[d][1,3]dioxol-5-yl)-2-morpholinopropanamide] | 359 nM | 
12 | CC(=O)c1cc2c(cc1NC(=O)C(C)(C)N1CCOCC1)OCO2 [compound 111, N-(6-Acetylbenzo[d][1,3]dioxol-5-yl)-2-methyl-2-morpholinopropanamide] | 207 nM | 
13 | CCOC(=O)[C@@H]1CCCN1CC(=O)Nc1cc2c(cc1C(C)=O)OCO2 [compound 112, Ethyl (2-((6-acetylbenzo[d][1,3]dioxol-5-yl)amino)-2-oxoethyl)-L-prolinate] | 206 nM | 
14 | CCOC(=O)C1CCCCN1CC(=O)Nc1cc2c(cc1C(C)=O)OCO2 (centres unmarked) [compound 113, Ethyl 1-(2-((6-Acetylbenzo[d][1,3]dioxol-5-yl)amino)-2-oxoethyl)piperidine-2-carboxylate] | 78 nM | 
15 | CCOC(=O)C1CCN(CC(=O)Nc2cc3c(cc2C(C)=O)OCO3)C1 (centres unmarked) [compound 114, Ethyl 1-(2-((6-acetylbenzo[d][1,3]dioxol-5-yl)amino)-2-oxoethyl)pyrrolidine-3-carboxylate] | 61 nM | 
16 | CCOC(=O)C1CCCN(CC(=O)Nc2cc3c(cc2C(C)=O)OCO3)C1 (centres unmarked) [compound 115, Ethyl 1-(2-((6-Acetylbenzo[d][1,3]dioxol-5-yl)amino)-2-oxoethyl)piperidine-3-carboxylate] | 9 nM | 
17 | CCOC(=O)C1CCN(CC(=O)Nc2cc3c(cc2C(C)=O)OCO3)CC1 [compound 116, Ethyl 1-(2-((6-acetylbenzo[d][1,3]dioxol-5-yl)amino)-2-oxoethyl)piperidine-4-carboxylate] | 103 nM | 
18 | CCOC(=O)C1CCCN(CC(=O)Nc2cc3c(cc2OC)OCO3)C1 (centres unmarked) [compound 117, Ethyl 1-(2-((6-Methoxybenzo[d][1,3]dioxol-5-yl)amino)-2-oxoethyl)piperidine-3-carboxylate] | 188 nM | 
19 | CCOC(=O)C1CCCN(CC(=O)Nc2cc3c(cc2C(C)=O)OCCO3)C1 (centres unmarked) [compound 118, Ethyl 1-(2-((7-Acetyl-2,3-dihydrobenzo[b][1,4]dioxin-6-yl)amino)-2-oxoethyl)piperidine-3-carboxylate] | 24 nM | 
20 | CC(=O)c1cc2c(cc1NC(=O)CN1CC(C)OC(C)C1)OCO2 (centres unmarked) [compound 119] | 246 nM | 
21 | CC(=O)c1cc2c(cc1NC(=O)CN1CCC(O)CC1)OCO2 [compound 120] | < 10 nM | 
22 | COC1CCN(CC(=O)Nc2cc3c(cc2C(C)=O)OCO3)CC1 [compound 121] | 65 nM | 
23 | CC(=O)c1cc2c(cc1NC(=O)CN1CCCC(O)C1)OCO2 (centres unmarked) [compound 122] | < 20 nM | 
24 | COC1CCCN(CC(=O)Nc2cc3c(cc2C(C)=O)OCO3)C1 (centres unmarked) [compound 123] | 2 nM | 
25 | COC1CCN(C(C)(C)C(=O)Nc2cc3c(cc2C(C)=O)OCO3)CC1 [compound 124] | 2140 nM | 
26 | COC(=O)C1CCN(CC(=O)Nc2cc3c(cc2C(C)=O)OCO3)CC1 [compound 125] | 100 nM | 
27 | COC(=O)C1CN(CC(=O)Nc2cc3c(cc2C(C)=O)OCO3)CCC1=O (centres unmarked) [compound 126] | 154 nM | 

Row | SMILES | IC50 (Table 4) | other results
28 | CCOC(=O)C1CN(CC(=O)Nc2cc3c(cc2C(C)=O)OCO3)CCO1 (centres unmarked) [compound 127] | 13 nM | 
29 | CCOC(=O)C1COCCN1CC(=O)Nc1cc2c(cc1C(C)=O)OCO2 (centres unmarked) [compound 128] | 79 nM | 
30 | CC(=O)c1cc2c(cc1NC(=O)CN1CCN(C(=O)OC(C)(C)C)CC1)OCO2 [compound 129] | < 1000 nM | 
31 | CC(=O)c1cc2c(cc1NC(=O)CN(C)C1CCCCC1)OCO2 [compound 130] | 312 nM | 
32 | CCN(CCOC)CC(=O)Nc1cc2c(cc1C(C)=O)OCO2 [compound 131] | 2000 nM | 
33 | COC(=O)CN(C)CC(=O)Nc1cc2c(cc1C(C)=O)OCO2 [compound 132] | 659 nM | 
34 | CCOC(=O)CCN(C)CC(=O)Nc1cc2c(cc1C(C)=O)OCO2 [compound 133] | 113 nM | 
35 | CC(=O)c1cc2c(cc1NC(=O)CN(C)CCC(=O)N(C)C)OCO2 [compound 134] | 960 nM | 
36 | CCNC(=O)CCN(C)CC(=O)Nc1cc2c(cc1C(C)=O)OCO2 [compound 135] | 500 nM | 
37 | CCOC(=O)CCN(CC)CC(=O)Nc1cc2c(cc1C(C)=O)OCO2 [compound 136] | 179 nM | 
38 | CCOC(=O)[C@@H]1CCCC[C@H]1N(C)CC(=O)Nc1cc2c(cc1C(C)=O)OCO2 [compound 137] | 2830 nM | 
39 | CC(=O)c1cc2c(cc1NC(=O)CN(C)C1CCCN(C(=O)OC(C)(C)C)C1)OCO2 (centres unmarked) [compound 138] | 150 nM | 
40 | CC(=O)c1cc2c(cc1NC(=O)CNC1CCN(C(=O)OC(C)(C)C)CC1)OCO2 [compound 139] | 176 nM | 
41 | CC(=O)c1cc2c(cc1NC(=O)CN(C)C1CCN(C(=O)OC(C)(C)C)CC1)OCO2 [compound 140] | 433 nM | 
42 | CCOC(=O)C1CCC(N(C)CC(=O)Nc2cc3c(cc2C(C)=O)OCO3)CC1 (centres unmarked) [compound 141] | 168 nM | 
43 | CCOC(=O)CCN(C)CC(=O)Nc1cc2c(cc1OC)OCO2 [compound 142] | 230 nM | 
44 | COc1cc2c(cc1NC(=O)CN1CCOCC1)OCO2 [compound 143] | 142 nM | 
45 | COc1cc2c(cc1NC(=O)CN1CCCC(O)C1)OCO2 (centres unmarked) [compound 144] | < 2000 nM | 
46 | COc1cc2c(cc1NC(=O)CN1CCCC(OC)C1)OCO2 (centres unmarked) [compound 145] | 575 nM | 
47 | COc1cc2c(cc1NC(=O)CN1CCC(O)CC1)OCO2 [compound 146] | < 2000 nM | 
48 | COc1cc2c(cc1NC(=O)CN1CCC(OC)CC1)OCO2 [compound 147] | 448 nM | 
49 | COc1cc2c(cc1NC(=O)CN1CCN(C(=O)OC(C)(C)C)CC1)OCO2 [compound 148] | < 2000 nM | 
50 | COc1cc2c(cc1NC(=O)CN1CCCc3cccc(F)c31)OCO2 [compound 149] | 885 nM | 
51 | COc1cc2c(cc1NC(=O)CN1CCc3ccccc31)OCO2 [compound 150] | 393 nM | 
52 | CCOC(=O)C1CCCN(CC(=O)Nc2cc3c(cc2Cl)OCCO3)C1 (centres unmarked) [compound 151] | 152 nM | 
53 | CC(=O)c1cc2c(cc1NC(=O)CN1CCOCC1)OCCO2 [compound 152] | 630 nM | 
